Like-named read-outs stand apart in the source and are kept apart here.
Experiments:
5HT2B receptors = biological target: T1, 5HT2B receptors (Homo sapiens, UniProt P41595); assay: Human 5-HT2B functional high throughput screening assay in CHO-K1 cells (calcium flux); assay type: cell-based; conditions: for EC50: CHO-K1 cells, calcium flux
T1 construct: expressed in transfected cells; host or cells: CHO-K1 cells
Experimental: (§1) (iii) Human 5-HT2C and 5-HT2B Functional High Throughput Screening Assays in CHO-K1 Cells
(§2) CHO-K1 cells over-expressing 5HT2C or 5HT2B receptors were grown in 1272 cm^2 flasks to 70-80% confluency in UltraCHO media (Lonza, Walkersville, Md.) supplemented with 1% dialyzed fetal bovine serum (FBS), 250 μg/mL zeocin, 100 U/mL penicillin and 100 μg/mL streptomycin, and 400 μg/mL geneticin. The cells were dissociated from the flasks using 0.05% trypsin, resuspended in Recovery™ cell culture freezing medium (Invitrogen, Carlsbad, Calif.) and stored in liquid nitrogen until use. The calcium flux experiments were done using frozen cells. The cells were diluted in media containing 1% dialyzed FBS and 100 U/mL penicillin and 100 μg/mL streptomycin and plated into 384-well poly-D-Lysine coated plates (15,000 cells/well). Then the plates were incubated overnight in a cell incubator at 37° C., 5% CO2. On the next day, the growth media was replaced with media without FBS and further incubated overnight. On day three, the changes in intracellular Ca^2+ were determined using calcium sensitive fluorescent dye, Ca4 (MDS Analytical Technologies, Sunnyvale, Calif.) by loading 15 μL of diluted dye in Hank's Balanced Salt Solution and 20 mM Hepes buffer (pH 7.4) with final concentration of 2.5 mM probenecid into the cells containing media. Then the cells were incubated at room temperature for 60 minutes in dark.
(§3) After incubation, the cell plates were transferred to FLIPR™ (MDS) and their fluorescence measurements were read at an excitation wavelength of 480 nm and an emission wavelength of 530 nm at 25° C. The baseline fluorescence was measured for the first 10 seconds and then 15 μL of 4× concentration of serotonin/test compound was added to the cells. The fluorescence intensity was captured every second for the first 1 minute followed by every 5 seconds for an additional 2 minutes. The increase in fluorescent response by a test compound was normalized to the response of serotonin and used to determine agonist activity. The concentration response of compounds was done from a starting concentration of 10 μM, 1:10 dilution across 6 wells with a final dimethyl sulfoxide concentration of 0.2% and was fitted using a 4-parameter logistic equation. The concentration at which a compound exerts half its maximal effect was named as ‘effective concentration 50’ or ‘EC50’. Emax is the maximum functional response or efficacy expressed as a percentage relative to the effect of serotonin.

5HT2C receptors = biological target: T2, 5HT2C receptors (Homo sapiens, UniProt P28335); assay: Human 5-HT2C functional high throughput screening assay in CHO-K1 cells (calcium flux); assay type: cell-based; set-up: expressed in transfected cells; host or cells: CHO-K1 cells; conditions: for EC50: CHO-K1 cells, calcium flux; for Emax: CHO-K1, 5-HT2C, maximum functional response as percentage relative to the effect of serotonin
T2 sequence (P28335 33-458): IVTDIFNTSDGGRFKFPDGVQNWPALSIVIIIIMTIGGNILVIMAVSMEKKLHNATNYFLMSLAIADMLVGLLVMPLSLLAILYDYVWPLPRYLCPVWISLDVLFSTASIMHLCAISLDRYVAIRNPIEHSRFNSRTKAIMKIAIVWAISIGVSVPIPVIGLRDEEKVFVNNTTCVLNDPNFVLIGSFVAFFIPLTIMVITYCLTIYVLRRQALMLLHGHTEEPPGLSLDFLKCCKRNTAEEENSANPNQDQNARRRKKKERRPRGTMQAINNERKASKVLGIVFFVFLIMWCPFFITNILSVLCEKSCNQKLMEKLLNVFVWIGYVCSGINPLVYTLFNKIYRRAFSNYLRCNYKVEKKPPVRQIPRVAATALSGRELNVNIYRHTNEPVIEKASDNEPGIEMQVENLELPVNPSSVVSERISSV
Experimental: as §1, §2, §3; call rule not given here

[1] = 5-HT2B agonist activity, read-out: EC50
[2] = 5-HT2B, maximum functional response as percentage relative to the effect of serotonin
[3] = 5-HT2C agonist activity, read-out: EC50

T1 sequence (P41595 whole entry): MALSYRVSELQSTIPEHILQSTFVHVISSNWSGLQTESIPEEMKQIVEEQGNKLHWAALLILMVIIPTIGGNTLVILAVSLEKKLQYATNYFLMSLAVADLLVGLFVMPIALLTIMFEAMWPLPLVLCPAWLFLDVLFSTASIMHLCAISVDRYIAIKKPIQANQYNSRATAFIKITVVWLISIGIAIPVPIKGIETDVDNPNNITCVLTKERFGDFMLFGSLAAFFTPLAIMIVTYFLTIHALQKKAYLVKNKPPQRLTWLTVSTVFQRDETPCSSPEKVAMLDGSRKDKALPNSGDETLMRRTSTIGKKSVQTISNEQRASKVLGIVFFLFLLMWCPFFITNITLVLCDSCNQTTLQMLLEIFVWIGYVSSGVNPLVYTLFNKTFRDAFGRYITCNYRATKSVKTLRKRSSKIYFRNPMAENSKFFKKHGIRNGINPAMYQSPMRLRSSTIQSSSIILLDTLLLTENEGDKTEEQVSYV

Row | Compound | EC50 (5HT2B receptors; [1]) [nM] | Emax (5HT2B receptors; [2]) | EC50 (5HT2C receptors; [3]) [nM] | Emax (5HT2C receptors; read-out: Emax) [%] | Emax (5HT2B receptors; CHO-K1) [%] | Emax (5HT2C receptors) [%] | EC50 (5HT2B receptors; EC50, 5-HT2B agonist activity) [nM] | EC50 (5HT2C receptors; EC50, 5-HT2C agonist activity) [nM]
1 | CN(C)C(=O)c1cccc(-c2ccc3c(c2)C(=O)NC[C@@H]2CNC[C@@H]32)c1 (relative stereo) [Example 230, N,N-Dimethyl-3-(trans-6-oxo-1,2,3,3a,4,5,6,10b-octahydrobenzo[c]pyrrolo[3,4-e]azepin-8-yl)benzamide] | > 10000 | inactive | 80 | > 120 |  |  |  | 
2 | CCS(=O)(=O)c1cccc(-c2ccc3c(c2)C(=O)NC[C@@H]2CN(C)C[C@@H]32)c1 (relative stereo) [Example 255, Trans-8-(3-(ethylsulfonyl)phenyl)-2-methyl-1,2,3,3a,4,5-hexahydrobenzo[c]pyrrolo[3,4-e]azepin-6(10bH)-one] | > 10000 | inactive | 30 | 90 |  |  |  | 
3 | CCC(O)c1cccc(-c2ccc3c(c2)C(=O)NC[C@H]2CN(C)C[C@H]32)c1 (stereo partly drawn) [Example 311, (3aS,10bS)-8-[3-(1-Hydroxypropyl)phenyl]-2-methyl-2,3,3a,4,5,10b-hexahydropyrrolo[3,4-d][2]benzazepin-6(1H)-one] | > 10000 | inactive | 0.8 | 95 |  |  |  | 
4 | COc1ccccc1CCOc1ccc2c(c1)C(=O)NC[C@@H]1CNC[C@@H]21 (relative stereo) [Example 173, Trans-8-(2-methoxyphenethoxy)-1,2,3,3a,4,5-hexahydrobenzo[e]pyrrolo[3,4-c]azepin-6(10bH)-one] | > 10000 | inactive | 20 | > 120 |  |  |  | 
5 | Nc1ccc2c(c1)C(=O)NC[C@@H]1CN(Cc3ccccc3)C[C@H]21 (relative stereo) [Example 142, Cis-8-amino-2-benzyl-1,2,3,3a,4,5-hexahydrobenzo[e]pyrrolo[3,4-c]azepin-6(10bH)-one] | > 10000 | inactive | 2000 | 80 |  |  |  | 
6 | O=S1(=O)NC[C@@H]2CNC[C@H]2c2ccccc21 (relative stereo) [Example 111, Trans-2,3,3a,4,5,10b-hexahydro-1H-pyrrolo[3,4-d][1,2]benzothiazepine 6,6-dioxide] | > 10000 |  | 6000 |  | 20 | 100 |  | 
7 | CN1C[C@H]2CNC(=O)c3cc(-c4ccc5nonc5c4)ccc3[C@@H]2C1 (relative stereo) [Example 195, Trans-8-(benzo[c][1,2,5]oxadiazol-5-yl)-2-methyl-1,2,3,3a,4,5-hexahydrobenzo[e]pyrrolo[3,4-c]azepin-6(10bH)-one] | > 10000 | inactive | 10 | > 120 |  |  |  | 
8 | CN1C[C@H]2CNC(=O)c3cc(C(=O)NCCc4ccccc4)ccc3[C@@H]2C1 (relative stereo) [Example 126, Trans-2-methyl-6-oxo-N-phenethyl-1,2,3,3a,4,5,6,10b-octahydrobenzo[e]pyrrolo[3,4-c]azepine-8-carboxamide] | > 10000 | inactive | 6000 | 60 |  |  |  | 
9 | COc1cccc(CCOc2ccc3c(c2)C(=O)NC[C@@H]2CNC[C@@H]32)c1 (relative stereo) [Example 174, Trans-8-(3-methoxyphenethoxy)-1,2,3,3a,4,5-hexahydrobenzo[e]pyrrolo[3,4-c]azepin-6(10bH)-one] | > 10000 | inactive | 30 | 110 |  |  |  | 
10 | COc1ccc(-c2ccc3c(c2)C(=O)NC[C@H]2CN(C)C[C@H]32)cc1Cl [Example 319, (3aS,10bS)-8-(3-Chloro-4-methoxyphenyl)-2-methyl-2,3,3a,4,5,10b-hexahydropyrrolo[3,4-d][2]benzazepin-6(1H)-one] | > 10000 | inactive | 6 | 90 |  |  |  | 
11 | CC(=O)c1cccc(-c2ccc3c(c2)C(=O)N(C)C[C@@H]2CNC[C@@H]32)c1 (relative stereo) [Example 187, Trans-8-(3-acetylphenyl)-5-methyl-1,2,3,3a,4,5-hexahydrobenzo[e]pyrrolo[3,4-c]azepin-6(10bH)-one] | > 10000 | inactive | 3 | > 120 |  |  |  | 
12 | CN1C[C@H]2CNC(=O)c3cc(C=Cc4ccccc4)ccc3[C@@H]2C1 (relative stereo) [Example 85, Trans-2-methyl-8-styryl-1,2,3,3a,4,5-hexahydrobenzo[e]pyrrolo[3,4-c]azepin-6(10bH)-one] | > 10000 | inactive | 121 | 100 |  |  |  | 
13 | CN1C[C@H]2CNC(=O)c3cc(-c4ccc(F)cc4)ccc3[C@@H]2C1 (relative stereo) [Example 75, Trans-8-(4-fluorophenyl)-2-methyl-1,2,3,3a,4,5-hexahydrobenzo[e]pyrrolo[3,4-c]azepin-6(10bH)-one] | > 10000 | inactive |  | > 120 |  |  |  | 
14 | CC(O)c1cccc(-c2ccc3c(c2)C(=O)NC[C@@H]2CN(C)C[C@@H]32)c1 (relative stereo) [Example 238, Trans-8-(3-(1-hydroxyethyl)phenyl)-2-methyl-1,2,3,3a,4,5-hexahydrobenzo[c]pyrrolo[3,4-e]azepin-6(10bH)-one] | > 10000 | inactive | 0.7 | > 120 |  |  |  | 
15 | C[C@H](O)c1cccc(-c2ccc3c(c2)C(=O)NC[C@H]2CN(C)C[C@H]32)c1 [Example 293, (3aS,10bS)-8-{3-[(1S)-1-Hydroxyethyl]phenyl}-2-methyl-2,3,3a,4,5,10b-hexahydropyrrolo[3,4-d][2]benzazepin-6(1H)-one] |  | inactive | 2 |  |  |  |  | 
16 | CN1C[C@H]2CNC(=O)c3cc(CCc4ccccc4)ccc3[C@@H]2C1 (relative stereo) [Example 87, Trans-2-methyl-8-phenethyl-1,2,3,3a,4,5-hexahydrobenzo[e]pyrrolo[3,4-c]azepin-6(10bH)-one] | > 10000 | inactive | 38 | 90 |  |  |  | 
17 | CN1C[C@H]2CNC(=O)c3cc(-c4cccnc4)ccc3[C@@H]2C1 (relative stereo) [Example 143, Trans-2-methyl-8-(pyridin-3-yl)-1,2,3,3a,4,5-hexahydrobenzo[e]pyrrolo[3,4-c]azepin-6(10bH)-one] | > 10000 | inactive | 300 |  |  | > 120 |  | 
18 | CN1C[C@@H]2CNC(=O)c3cc(O)ccc3[C@H]2C1 [Example 200, (3aS,10bS)-8-Hydroxy-2-methyl-1,2,3,3a,4,5-hexahydrobenzo[e]pyrrolo[3,4-c]azepin-6(10bH)-one] | > 10000 | inactive | 500 |  |  | 55 |  | 
19 | CN1C[C@H]2CNC(=O)c3cc(-c4cccc(C(C)(C)O)c4)ccc3[C@@H]2C1 (relative stereo) [Example 186, Trans-8-(3-(2-hydroxypropan-2-yl)phenyl)-2-methyl-1,2,3,3a,4,5-hexahydrobenzo[e]pyrrolo[3,4-c]azepin-6(10bH)-one] | > 10000 | inactive | 1 | > 120 |  |  |  | 
20 | COc1ccc2c(c1)OCC[C@H]1CNC[C@H]21 (relative stereo) [Example 280, Trans-8-methoxy-2,3,3a,4,5,10b-hexahydro-1H-[1]benzoxepino[4,5-c]pyrrole] |  |  |  |  | 60 | 100 | 100 | 90

— patent publication US8846951B2 (AbbVie Inc., priority 2009, dated 2014)
